Reference: patent US20090022806A1, “Nanoparticle and polymer formulations for thyroid hormone analogs, antagonists and formulations and uses thereof” (priority 2006, published 2009)

Columns and labels:
[1] = test system: chick chorioallantoic membrane (CAM); assay: Chick chorioallantoic membrane (CAM) assay of angiogenesis; type: in vivo; details: 10^−7-10^−9 M
Protocol: Chorioallantoic membrane (CAM) Model of Angiogenesis: In vivo Neovascularization was examined by methods described previously. 9-12 Ten-day-old chick embryos were purchased from SPAFAS (Preston, Conn.) and incubated at 37° C. with 55% relative humidity. A hypodermic needle was used to make a small hole in the shell concealing the air sac, and a second hole was made on the broad side of the egg, directly over an avascular portion of the embryonic membrane that was identified by candling. A false air sac was created beneath the second hole by the application of negative pressure at the first hole, causing the CAM to separate from the shell. A window approximately 1.0 cm 2 was cut in the shell over the dropped CAM with a small-crafts grinding wheel (Dremel, division of Emerson Electric Co.), allowing direct access to the underlying CAM. FGF2 (1 μg/mL) was used as a standard proangiogenic agent to induce new blood vessel branches on the CAM of 10-day-old embryos. Sterile disks of No. 1 filter paper (Whatman International) were pretreated with 3 mg/mL cortisone acetate and 1 mmol/L PTU and air dried under sterile conditions. Thyroid hormone, hormone analogues, FGF2 or control solvents, and inhibitors were then applied to the disks and the disks allowed to dry. The disks were then suspended in PBS and placed on growing CAMs. […] At 24 hours, the MAPK cascade inhibitor PD 98059 was also added to CAMs topically by means of the filter disks.
After incubation at 37° C. with 55% relative humidity for 3 days, the CAM tissue directly beneath each filter disk was resected from control and treated CAM samples. Tissues were washed 3× with PBS, placed in 35-mm Petri dishes (Nalge Nunc), and examined under an SV6 stereomicroscope (Zeiss) at ×50 magnification. Digital images of CAM sections exposed to filters were collected using a 3-charge-coupled device color video camera system (Toshiba) and analyzed with Image-Pro software (Media Cybernetics). The number of vessel branch points contained in a circular region equal to the area of each filter disk were counted. One image was counted in each CAM preparation, and findings from 8 to 10 CAM preparations were analyzed for each treatment condition (thyroid hormone or analogues, FGF2, FGF2 antibody, PD 98059). In addition, each experiment was performed 3 times. The resulting angiogenesis index is the mean±SEM of new branch points in each set of samples.
Ten-day-old chick embryos were purchased £tom SPAFAS (Preston, Conn.) and were incubated at 37° C. with 55% relative humidity. A hypodermic needle was used to make a small hole in the blunt end of the egg and a second hole was made on the broad side of the egg, directly over an avascular portion of the embryonic membrane. Mild suction was applied to the first hole to displace the air sac and drop the CAM away from the shell. Using a Dremel model craft drill (Dremel, Racine, Wis.), a approx. 1.0 cm^2 window was cut in the shell over the false air sac, allowing access to the CAM. Sterile disks of No. 1 filter paper (Whatman, Clifton, N.J.) were pretreated with 3 mg/ml cortisone acetate and 1 mMm propylthiouracil and air dried under sterile conditions. […] The disks were then suspended in PBS and placed on growing CAMS. After incubation for 3 days, the CAM beneath the filter disk was resected and rinsed with PBS. Each membrane was placed in a 35 mm Petri dish and examined under an SV6 stereo-microscope at 50× magnification. Digital images were captured and analyzed with Image-Pro software (Mediacybemetics). The number of vessel branch points contained in a circular region equal to the filter disk were counted. One image from each of 8-10 CAM preparations for each treatment condition was counted, and in addition each experiment was performed 3 times.
Ten-day-old chick embryos were purchased from SPAFAS (Preston, Conn.) and were incubated at 37° C. with 55% relative humidity. Chick CAM assays were performed as previously described.

[2] = test system: EC migration toward the extracellular matrix protein vitronectin; assay: Cellular migration assay toward vitronectin (chemotaxis chamber); type: cell-based; details: hormone 0.1 uM in upper chamber, vitronectin 25 ug in lower chamber
Protocol: These assays were performed using a Neuroprobe 96 well disposable chemotaxis chamber with an 8 μm pore size. This chamber allowed for quantitation of cellular migration towards a gradient of either vitronectin or osteopontin. Cultured cells were removed following a standardized method using EDTA/Trypsin (0.01%/0.025%). Following removal, the cells were washed twice and resuspended (2×10^6/ml) in EBM (Endothelial cell basal media, Clonetics Inc.). Add either vitronectin or osteopontin (33 μl) at 0.0125-100 μg/ml to the lower wells of a disposable chemotaxis chamber, and then assemble using the preframed filter. The cell suspension (45 μl) was added to a polypropylene plate containing 5 μl of test agent at different concentrations and incubated for 10 minutes at 22° C. Add 25 μl of cell/test agent suspension to the upper filter wells then incubate overnight (22 hours at 37° C.) in a humidified cell culture incubator. After the overnight incubation, non-migrated cells and excess media were gently removed using a 12 channel pipette and a cell scraper. The filters were then washed twice in PBS (no Ca^+2 or Mg^+2) and fixed with 1% formaldehyde. Membranes of migrated cells were permeated with Triton X-100 (0.2%) then washed 2-3 times with PBS. […] Chemotaxis was quantitatively determined by fluorescence detection using a Cytofluor II (530 excitation/590 emission).

[3] = molecular target: T1, purified αVβ3 integrin (Homo sapiens, UniProt P05106+P06756); assay: Radioligand binding assay, [125I]-T4 to purified integrin
T1 construct: purchased
T1 sequence (P06756 31-889 limits assumed): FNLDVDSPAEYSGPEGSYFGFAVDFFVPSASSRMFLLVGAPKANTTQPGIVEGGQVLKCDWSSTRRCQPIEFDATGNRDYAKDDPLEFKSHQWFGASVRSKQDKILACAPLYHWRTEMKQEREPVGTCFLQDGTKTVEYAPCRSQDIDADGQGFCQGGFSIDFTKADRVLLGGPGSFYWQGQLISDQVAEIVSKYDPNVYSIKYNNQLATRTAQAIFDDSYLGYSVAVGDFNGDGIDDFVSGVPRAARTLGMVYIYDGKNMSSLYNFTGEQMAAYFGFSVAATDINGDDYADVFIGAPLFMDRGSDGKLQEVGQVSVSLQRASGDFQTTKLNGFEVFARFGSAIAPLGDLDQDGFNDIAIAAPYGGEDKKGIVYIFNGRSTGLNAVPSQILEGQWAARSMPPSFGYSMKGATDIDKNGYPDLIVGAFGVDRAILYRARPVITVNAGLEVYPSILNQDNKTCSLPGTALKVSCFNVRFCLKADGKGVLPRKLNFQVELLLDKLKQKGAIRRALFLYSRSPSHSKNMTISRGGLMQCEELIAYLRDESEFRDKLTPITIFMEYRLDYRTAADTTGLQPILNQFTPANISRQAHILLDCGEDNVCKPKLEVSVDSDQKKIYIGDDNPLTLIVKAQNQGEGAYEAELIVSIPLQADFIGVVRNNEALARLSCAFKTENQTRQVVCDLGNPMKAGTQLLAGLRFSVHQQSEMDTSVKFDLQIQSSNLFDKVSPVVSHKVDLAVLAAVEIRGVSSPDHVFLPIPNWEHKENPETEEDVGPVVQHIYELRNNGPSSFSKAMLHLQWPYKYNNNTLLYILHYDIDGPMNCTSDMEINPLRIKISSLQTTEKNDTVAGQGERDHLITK
T1 sequence (P06756 891-1048 partner limits assumed): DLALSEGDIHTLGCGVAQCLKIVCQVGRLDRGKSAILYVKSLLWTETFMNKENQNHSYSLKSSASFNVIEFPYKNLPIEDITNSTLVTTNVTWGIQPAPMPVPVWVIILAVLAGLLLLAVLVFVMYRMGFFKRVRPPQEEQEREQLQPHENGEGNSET
T1 sequence (P05106 27-788): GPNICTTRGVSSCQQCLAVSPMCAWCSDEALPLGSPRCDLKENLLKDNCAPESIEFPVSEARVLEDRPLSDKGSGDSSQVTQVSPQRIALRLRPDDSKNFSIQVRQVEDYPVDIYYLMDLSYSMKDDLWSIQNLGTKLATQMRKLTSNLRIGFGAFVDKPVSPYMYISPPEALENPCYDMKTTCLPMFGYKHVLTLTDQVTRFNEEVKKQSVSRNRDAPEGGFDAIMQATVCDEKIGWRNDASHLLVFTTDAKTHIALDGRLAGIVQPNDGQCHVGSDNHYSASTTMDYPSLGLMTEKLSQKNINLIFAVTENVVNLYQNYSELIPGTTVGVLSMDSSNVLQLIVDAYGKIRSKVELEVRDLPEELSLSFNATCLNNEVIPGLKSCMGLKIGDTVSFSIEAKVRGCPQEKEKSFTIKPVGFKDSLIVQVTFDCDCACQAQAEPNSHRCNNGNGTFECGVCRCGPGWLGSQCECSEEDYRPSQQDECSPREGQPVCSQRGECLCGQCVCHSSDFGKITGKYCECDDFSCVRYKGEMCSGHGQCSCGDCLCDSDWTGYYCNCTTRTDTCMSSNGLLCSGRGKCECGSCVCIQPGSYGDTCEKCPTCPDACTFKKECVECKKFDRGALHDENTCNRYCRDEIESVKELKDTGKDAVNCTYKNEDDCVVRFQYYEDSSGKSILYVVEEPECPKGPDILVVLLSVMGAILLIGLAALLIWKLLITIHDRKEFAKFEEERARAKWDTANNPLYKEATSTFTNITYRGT
Protocol: Two μg of purified αVβ3 was mixed with indicated concentrations of test compounds and allowed to incubate for 30 min at room temperature. […] The samples were mixed with sample buffer (50% glycerol, 0.1M Tris-HCl, pH 6.8, and bromophenol blue) and runout on a 5% basic-native gel for 24 h at 45 mA in the cold. The apparatus was disassembled and the gels were placed on filter paper, wrapped in plastic wrap, and exposed to film. Band intensity was determined using the VersaDoc 5000 Imaging system.

[4] = test system: human dermal fibroblast cells; assay: In vitro 3D wound healing assay of human dermal fibroblast cells; type: cell-based; details: T4 between 0.1 μM and 1.0 μM
Protocol: Step 1: Prepare contracted collagen gels: • 1) Coat 24-well plate with 350 ul 2% BSA at RT for 2 hr, • 2) 80% confluent NHDF (normal human dermal fibroblast cells, Passage 5-9) are trypsinized and neutralized with growth medium, centrifuge and wash once with PBS • 3) Prepare collagen-cell mixture, mix gently and always on ice:
• 4) Aspire 2% BSA from 24 well plate, add collagen-cell mixture 350 ul/well, and incubate the plate in 37° C. CO2 incubator. • 5) After 1 hr, add DMEM+5% FBS medium 0.5 ml/well, use a 10 ul tip Detach the collagen gel from the edge of each well, then incubate for 2 days. The fibroblast cells will contract the collagen gel Step 2: Prepare 3D fibrin wound clot and embed wounded collagen culture • 1) Prepare fibrinogen solution (1 mg/ml) with or without testing regents. 350 ul fibrinogen solution for each well in eppendorf tube.
• 2) Cut each contracted collagen gel from middle with scissors. Wash the gel with PBS and transfer the gel to the center of each well of 24 well plate • 3) Add 1.5 ul of human thrombin (0.25 U/ul) to each tube, mix well and then add the solution around the collagen gel, the solution will polymerize in 10 mins. After 20 mins, add DMEM+1% (or 5%) FBS with or without testing agent, 450 ul/well and incubate the plate in 37° C. CO2 incubator for up to 5 days. Take pictures on each day.

`N[C@@H](Cc1cc(I)c(Oc2cc(I)c(O)c(I)c2)c(I)c1)C(=O)O` [T4, L-thyroxine] was tested, and the “promotion of generation of new blood vessels from existing vessels” value [1] was “two- to three-fold”, the “Mean EC Migration (Fluorescence Units) + SD” value [2] was 13,083 ± 276 Fluorescence Units and the “reduction of [125I]T4 binding to purified αVβ3” value (shortened to “reduction of [125I]T4 binding”) ([3]; competitor 10^−4 M) was “almost completely displaced”. For the same molecule, the “reduction of [125I]T4 binding” value ([3]; competitor 10^−5 M) was “maximal”, the “reduction of [125I]T4 binding” value ([3]; competitor 10^−6 M (total)) was 58% and the “reduction of [125I]T4 binding” value ([3]; competitor 10^−7 M (total)) was 13%. The EC50 ([3]; non-linear regression) was 0.371 nM, the Kd ([3]; non-linear regression) was 0.333 nM and the “wound healing (outmigrating cells), Day 3” value [4] was “increases wound healing”.
